Laboratory results published in patent US10914726B2, “Method for evaluating protrusion-forming ability of cell spheroids” (priority 2017, dated 2021).

Legend:
MDA-MB231 cells [1] = assay: Live/dead determination of gel-embedded cell spheroids treated with anticancer agents; type: cell-based, human; details: 48 hours, Batimastat 4 μM, Staurosporine 1 μM; for number of dead cells (share of cells) / Number of Dead cells / Number of Living cells: MDA-MB231 spheroid in Matrigel; for Number of Dead cells: green fluorescence cell nuclei counted; for Number of Living cells: red fluorescence cell nuclei counted
Method: (§1) The protrusion-forming ability of the cell spheroids of the cancer cells treated with various anticancer agents was examined. As the cancer cells, MDA-MB231 cells of a cultured cell strain established from a human breast cancer cells were used. MDA-MB 231 cells were cultured under a condition with a temperature of 37° C. and a CO2 concentration of 5 vol % in a culture medium of DMEM containing 10% FBS.
(§2) Two thousand MDA-MB 231 cells and 5 μL of 10×Spheroid Formation ECM (manufactured by Trevigen, Inc.) were mixed in a culture medium to prepare a cancer cell solution of which the final amount was adjusted to 50 μL using DMEM (phenol red free), and then 50 μL of the cancer cell solution was injected into one well of the U bottom plate for forming a cell spheroid “Prime Surface (registered trade mark) U plate” (manufactured by Sumitomo Bakelite Co., LTD.), followed by culturing the cells for 72 hours to form cell spheroids.
(§3) The culture medium was removed from the U bottom plate as much as possible by suction while paying attention not to suck the spheroids, followed by carefully adding 100 μL of Matrigel (manufactured by Corning Incorporated) to the well. The U bottom plate was allowed to stand in an incubator at 37° C. for 1 hour, and the gel was cured to construct a cell spheroid embedded in a gel.
100 μL of culture mediums containing L-Sulforaphane (final concentration: 10 μM), Batimastat (final concentration: 4 μM), Mitomycin C (final concentration: 10 μM), Paclitaxel (final concentration: 4 μM), or Staurosporine (final concentration: 1 μM) was added on the gel in which the cell spheroids were embedded, and then 0.1 μL ( 1/1000 of the culture medium amount) of “Nuclear ID green/red cell viability reagent” (manufactured by Enzo Life Science, Inc.) was further added thereto, followed by culturing them for 48 hours to infiltrate. By adding the live/dead determination reagent, the living cells were stained with red fluorescence and the dead cells were stained with green fluorescence. As a control, a cultivation in which a culture medium containing only the live/dead determination reagent was used was carried out in the same manner as the above-described cultivation except that the anticancer agents were not added.
The fluorescently labeled samples prepared in the above-described sections <Anticancer Agent Treatment and Treatment for Live/dead Determination> and <Anticancer Agent Treatment and Actin Staining> were imaged with a confocal laser microscope “FV 1200” (manufactured by Olympus Corporation). A 20-fold objective lens ([…]×20) was used to image, and the Z-slice interval was 2 μm. The total number of Z-slices was 60 to 100.
The series of plane tomographic image groups obtained by imaging the respective fluorescently labeled samples were superimposed to construct a stereoscopic image. The obtained stereoscopic image was binarized to obtain a binarized image.
For the binarized images obtained from the fluorescently labeled samples treated with the live/dead determination reagent, the number of cell nuclei of red fluorescence and green fluorescent were measured.

MDA-MB231 cells [2] = assay: Evaluation of protrusion-forming ability of cell spheroids from stereoscopic image (central sphere volume ratio); type: cell-based, human; details: 48 hours, L-Sulforaphane 10 μM, Batimastat 4 μM, Mitomycin C 10 μM, Paclitaxel 4 μM, Staurosporine 1 μM
Method: as §1, §2
as §3, with “gel. […]” for “gel.”

Row | Compound | number of dead cells (share of cells) (MDA-MB231 cells [1]) | Number of Dead cells (MDA-MB231 cells [1]) | Number of Living cells (MDA-MB231 cells [1]) | central sphere volume ratio ([volume of non-protrusion part]/[total volume of cell spheroid]) from stereoscopic image (MDA-MB231 cells [2]; FIG. 3, actin staining) | protrusion formation / protrusion-forming ability (MDA-MB231 cells [2]; stereoscopic image) | induction of cell death (MDA-MB231 cells [1]; MDA-MB231 spheroid)
1 | CNC(=O)[C@H](Cc1ccccc1)NC(=O)[C@H](CC(C)C)[C@H](CSc1cccs1)C(=O)NO [Batimastat] | about 24% | 562 | 1738 |  |  | 
2 | CO[C@@]12[C@H](COC(N)=O)C3=C(C(=O)C(C)=C(N)C3=O)N1C[C@@H]1N[C@@H]12 [Mitomycin C] |  |  |  | higher central sphere volume ratio as compared with the remaining three anticancer agent-treated samples | suppressed more strongly | 
3 | CN[C@@H]1C[C@H]2O[C@@](C)([C@@H]1OC)n1c3ccccc3c3c4c(c5c6ccccc6n2c5c31)C(=O)NC4 [Staurosporine] | about 70% | 1631 ± 414 | 576 ± 67 |  |  | cell death was induced
